Values of other authors, collected in US5288707A, “Borolysine peptidomimetics” (Sandoz Ltd., priority 1990, dated 1994).

Assays:
thrombin = thrombin (Homo sapiens, UniProt P00734); conditions: reversible and irreversible inhibitors, value given as a range of magnitude
[1] = in vivo

SMILES | inhibition in vitro (thrombin) | LD50 value [1]
NC(N)=NCCC[C@H](NC(=O)[C@@H]1CCCN1C(=O)[C@H](N)Cc1ccccc1)C(=O)CCl [D-Phe-Pro-Arg-CH2 Cl] | ~10^-8 M | –
N=C(N)NCCC[C@@H](C=O)NC(=O)[C@@H]1CCCN1C(=O)[C@H](N)Cc1ccccc1 [D-Phe-Pro-Arginal] | ~10^-8 M | quite a low
